pKi: −log10 of the molar value. Like-named read-outs stand apart in the source and are kept apart here.
What was measured:
[1] = biological target: T1, human σ1 receptor (Homo sapiens, UniProt Q99720); test: Human σ1 receptor radioligand assay ([3H](+)-pentazocine); assay type: binding
T1 construct: expressed in transfected cells; host or cells: HEK-293
Experimental: Human σ1 Receptor Radioligand Assay
(§1) NBS (non-specific binding) was measured by adding 10 μM haloperidol. The binding of the test compound was measured at either one concentration (% inhibition at 1 or 10 µM) or five different concentrations to determine affinity values (Ki). Plates were incubated at 37° C. for 120 minutes. After the incubation period, the reaction mix was then transferred to MultiScreen HTS, FC plates (Millipore), filtered and plates were washed 3 times with ice-cold 10 mM Tris-HCL (pH7.4). Filters were dried and counted at approximately 40% efficiency in a MicroBeta scintillation counter (Perkin-Elmer) using EcoScint liquid scintillation cocktail.

[2] = biological target: T2, human σ2/TMEM97 receptor (Homo sapiens, UniProt Q5BJF2); test: Binding assay to human σ2/TMEM97 receptor ([3H]-DTG)
T2 construct: expressed in transfected cells; host or cells: HEK-293
T2 sequence (Q5BJF2 whole entry): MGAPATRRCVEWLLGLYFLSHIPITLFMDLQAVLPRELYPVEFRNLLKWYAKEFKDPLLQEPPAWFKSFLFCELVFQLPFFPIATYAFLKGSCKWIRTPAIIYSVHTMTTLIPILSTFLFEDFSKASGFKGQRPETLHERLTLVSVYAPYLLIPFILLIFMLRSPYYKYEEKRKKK
Experimental: Binding Assay to Human σ2/TMEM97 Receptor.
as §1, with “Transfected HEK-293 membranes (15 μg) were incubated with 10 nM [^3H]-1,3-Di-o-tolylguanidine (DTG) in assay buffer containing Tris-HCl 50 mM at pH 8.0. NSB” for “NBS”, “25°” for “37°”, “was” for “was then”, “and” for “and plates were”, “(pH 8.0).” for “(pH7.4).”

[3] = transfected HEK-293 membranes, 5 nM [3H](+)-pentazocine, 37° C., 120 minutes, read-out: Binding σ-[…] (binding to σ1-receptor expressed as Ki)
[4] = transfected HEK-293 membranes, 10 nM [3H]-DTG, 25° C., 120 minutes, read-out: Binding σ-[…] (binding to σ2-receptor expressed as Ki)

T1 sequence (Q99720 whole entry): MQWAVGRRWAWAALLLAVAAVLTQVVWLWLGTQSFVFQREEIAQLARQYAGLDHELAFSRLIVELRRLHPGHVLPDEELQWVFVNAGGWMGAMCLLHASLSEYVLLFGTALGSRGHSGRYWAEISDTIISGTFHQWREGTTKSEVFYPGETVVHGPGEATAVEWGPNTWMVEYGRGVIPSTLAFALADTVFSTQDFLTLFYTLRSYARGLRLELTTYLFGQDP

| pKi [1, 3] | pKi [2, 4] | SMILES | pKi [1] | pKi [2] |
| --- | --- | --- | --- | --- |
| < 6.00 | > 7.00 | CN(Cc1ccccc1)[C@H]1CC[C@H](NC(=O)N2CC(C)(C)c3ncccc32)CC1 [Example 71, N-((1r,4r)-4-(benzyl(methyl)amino)cyclohexyl)-3,3-dimethyl-2,3-dihydro-1H-pyrrolo[3,2-b]pyridine-1-carboxamide] |  |  |
| 6.30 to 7.00 | > 7.00 | CN(CCc1ccccc1)C1CCN(C(=O)N2CC(C)(C)c3ncccc32)CC1 [Example 52, (3,3-dimethyl-2,3-dihydro-1H-pyrrolo[3,2-b]pyridin-1-yl)(4-(methyl(phenethyl)amino)piperidin-1-yl)methanone] |  |  |
| 6.30 to 7.00 | > 7.00 | Cc1ccc2c(n1)C(C)(C)CN2C(=O)N1CCC(N(C)Cc2ccc(C#N)cc2)CC1 [Example 117, 4-((methyl(1-(3,3,5-trimethyl-2,3-dihydro-1H-pyrrolo[3,2-t]pyridine-1-carbonyl)piperidin-4-yl)amino)methyl)benzonitrile] |  |  |
| > 7.00 | > 7.00 | CC1(C)CN(C(=O)N2CCC3(CCN(Cc4ccc(C#N)c(F)c4)CC3)C2)c2cccnc21 [Example 142, 4-((2-(3,3-dimethyl-2,3-dihydro-1H-pyrrolo[3,2-b]pyridine-1-carbonyl)-2,8-diazaspiro[4.5]decan-8-yl)methyl)-2-fluorobenzonitrile] |  |  |
| 6.30 to 7.00 | > 7.00 | CN(Cc1ccccc1)C1CCN(C(=O)N2CC(C)(C)c3ncccc32)CC1 [Example 29, (4-(benzyl(methyl)amino)piperidin-1-yl)(3,3-dimethyl-2,3-dihydro-1H-pyrrolo[3,2-b]pyridin-1-yl)methanone] |  |  |
| > 7.00 | > 7.00 | Cc1ccc2c(n1)C(C)(C)CN2C(=O)[C@H]1CC[C@H](N(C)Cc2cccc(F)c2F)CC1 [Example 174, ((1r,4r)-4-((2,3-difluorobenzyl)(methyl)amino)cyclohexyl)(3,3,5-trimethyl-2,3-dihydro-1H-pyrrolo[3,2-b]pyridin-1-yl)methanone] |  |  |
| 6.00 to 6.30 | 6.30 to 7.00 | CN(Cc1cccc(F)c1)C1CCN(C(=O)N2CC(C)(C)c3ncccc32)CC1 [Example 85, (3,3-dimethyl-2,3-dihydro-1H-pyrrolo[3,2-b]pyridin-1-yl)(4-((3-fluorobenzyl)(methyl)amino)piperidin-1-yl)methanone] |  |  |
| < 6.00 | 6.00 to 6.30 | Cc1ccc2c(n1)C(C)(C)CN2C(=O)N1CCC(N(C)Cc2cccc(S(C)(=O)=O)c2)CC1 [Example 56, (4-(methyl(3-(methylsulfonyl)benzyl)amino)piperidin-1-yl)(3,3,5-trimethyl-2,3-dihydro-1H-pyrrolo[3,2-b]pyridin-1-yl)methanone] |  |  |
| > 7.00 | > 7.00 | Cc1ccc2c(n1)C(C)(C)CN2C(=O)[C@H]1CC[C@H](N(C)Cc2ccc(C#N)c(F)c2)CC1 [Example 180, 2-fluoro-4-((methyl((1r,4r)-4-(3,3,5-trimethyl-2,3-dihydro-1H-pyrrolo[3,2-b]pyridine-1-carbonyl)cyclohexyl)amino)methyl)benzonitrile] |  |  |
| 6.30 to 7.00 | < 6.00 | CN(C)[C@@H](CNC(=O)N1CC(C)(C)c2ncccc21)c1ccccc1 [Example 5, (R)—N-(2-(dimethylamino)-2-phenylethyl)-3,3-dimethyl-2,3-dihydro-1H-pyrrolo[3,2-b]pyridine-1-carboxamide] |  |  |
| < 6.00 | 6.30 to 7.00 | CN(Cc1cc(C#N)ccc1F)C1CCN(C(=O)N2CC(C)(C)c3ncccc32)CC1 [Example 77, 3-(((1-(3,3-dimethyl-2,3-dihydro-1H-pyrrolo[3,2-b]pyridine-1-carbonyl)piperidin-4-yl)(methyl)amino)methyl)-4-fluorobenzonitrile] |  |  |
| 6.30 to 7.00 | > 7.00 | CC1(C)CN(C(=O)N2CCC3(CCN(CC4CCOCC4)CC3)CC2)c2cccnc21 [Example 166, (3,3-dimethyl-2,3-dihydro-1H-pyrrolo[3,2-b]pyridin-1-yl)(9-((tetrahydro-2H-pyran-4-yl)methyl)-3,9-diazaspiro[5.5]undecan-3-yl)methanone] |  |  |
| 6.30 to 7.00 | > 7.00 | Cc1ccc2c(n1)C(C)(C)CN2C(=O)N1CCC(N(C)Cc2ccc(F)c(C#N)c2)CC1 [Example 60, 2-fluoro-5-((methyl(1-(3,3,5-trimethyl-2,3-dihydro-1H-pyrrolo[3,2-b]pyridine-1-carbonyl)piperidin-4-yl)amino)methyl)benzonitrile] |  |  |
| 6.30 to 7.00 | > 7.00 | COc1ccc(CN2CCC3(CC2)CCN(C(=O)N2CC(C)(C)c4nc(C)ccc42)C3)cc1 [Example 103, (8-(4-methoxybenzyl)-2,8-diazaspiro[4.5]decan-2-yl)(3,3,5-trimethyl-2,3-dihydro-1H-pyrrolo[3,2-b]pyridin-1-yl)methanone] |  |  |
| > 7.00 | < 6.00 | Cc1ccc2c(n1)C(C)(C)CN2C(=O)NC[C@@H](c1ccc(F)cc1)N(C)C [Example 33, (R)—N-(2-(dimethylamino)-2-(4-fluorophenyl)ethyl)-3,3,5-trimethyl-2,3-dihydro-1H-pyrrolo[3,2-b]pyridine-1-carboxamide] |  |  |
| 6.30 to 7.00 | < 6.00 | CN(C)C(CNC(=O)N1CC(C)(C)c2nc(C(F)(F)F)ccc21)c1ccccc1 (stereo not shown) [Example 3, N-(2-(dimethylamino)-2-phenylethyl)-3,3-dimethyl-5-(trifluoromethyl)-2,3-dihydro-1H-pyrrolo[3,2-b]pyridine-1-carboxamide] |  |  |
| < 6.00 | 6.30 to 7.00 | CC1(C)CN(C(=O)N2CCC3(CCN(Cc4ncccc4F)CC3)C2)c2cccnc21 [Example 153] |  |  |
| 6.30 to 7.00 | < 6.00 | CN[C@H](CNC(=O)N1CC(C)(C)c2nc(C)ccc21)c1ccccc1 [Example 111, (S)-3,3,5-trimethyl-N-(2-(methylamino)-2-phenylethyl)-2,3-dihydro-1H-pyrrolo[3,2-b]pyridine-1-carboxamide] |  |  |
| 6.30 to 7.00 | 6.30 to 7.00 | Cc1ccc2c(n1)C(C)(C)CN2C(=O)N1CCC2(CC1)CN(Cc1ccccc1)C2 [Example 93, (2-benzyl-2,7-diazaspiro[3.5]nonan-7-yl)(3,3,5-trimethyl-2,3-dihydro-1H-pyrrolo[3,2-b]pyridin-1-yl)methanone] |  |  |
| > 7.00 | > 7.00 | Cc1ccc2c(n1)C(C)(C)CN2C(=O)[C@H]1CC[C@H](NCc2ccccc2F)CC1 [Example 188, ((1r,4r)-4-((2-fluorobenzyl)amino)cyclohexyl)(3,3,5-trimethyl-2,3-dihydro-1H-pyrrolo[3,2-b]pyridin-1-yl)methanone] |  |  |
| 6.30 to 7.00 | < 6.00 | Cc1ccc2c(n1)C(C)(C)CN2C(=O)NC1CCN(Cc2cccc(C#N)c2)CC1 [Example 23, N-(1-(3-cyanobenzyl)piperidin-4-yl)-3,3,5-trimethyl-2,3-dihydro-1H-pyrrolo[3,2-b]pyridine-1-carboxamide] |  |  |

| SMILES | pKi [1, 3] | pKi [2, 4] | pKi [1] | pKi [2] |
| --- | --- | --- | --- | --- |
| CC1(C)CN(C(=O)N2CCC3(CCN(CCC4CCOCC4)CC3)C2)c2cccnc21 [Example 156, (3,3-dimethyl-2,3-dihydro-1H-pyrrolo[3,2-b]pyridin-1-yl)(8-(2-(tetrahydro-2H-pyran-4-yl)ethyl)-2,8-diazaspiro[4.5]decan-2-yl)methanone] |  | > 7.00 | 6.30 to 7.00 |  |
| Cc1ccc2c(n1)C(C)(C)CN2C(=O)N1CCC2(CCN(CCc3ccccc3)CC2)C1 [Example 91, (8-phenethyl-2,8-diazaspiro[4.5]decan-2-yl)(3,3,5-trimethyl-2,3-dihydro-1H-pyrrolo[3,2-b]pyridin-1-yl)methanone] | 6.00 to 6.30 |  |  | > 7.00 |

Source: US20240174671A1, “New 2,3-Dihydro-1H-pyrrolo[3,2-b]pyridine Derivatives as Sigma Ligands” (ACONDICIONAMIENTO TARRASENSE, priority 2021, published 2024)
